{
  "source": "patent US8084059B2",
  "about": "“Antidepressant dosage form” (ALZA Corporation, priority 1993, dated 2011)",
  "origin": "cited, not measured here",
  "key": {"[1]": {"system": "reserpine-induced hypothermia", "conditions": "in vivo"}, "[2]": {"system": "neuronal uptake of morepinephrine", "conditions": "in vitro"}, "[3]": {"conditions": "humans"}, "[4]": {"system": "histamine-induced corticotropin release", "conditions": "in vivo"}, "[5]": {"system": "cyclicadenosine monophosphate subsensitivity", "conditions": "after both acute and chronic administration"}, "monoamine oxidase": {"system": "monoamine oxidase", "conditions": "in vitro"}, "[6]": {"system": "neuronal uptake of dopamine", "conditions": "in vitro"}, "effects of levodopa": {"system": "effects of levodopa", "conditions": "in vivo"}},
  "data": [
    {"molecule": "COc1ccc(C(CN(C)C)C2(O)CCCCC2)cc1", "note": "(centres unmarked) [1-[2-(dimethylamino)-1-(4-methoxyphenyl)ethyl]cyclohexanol]", "values": [
      {"measurement": "effect on reserpine-induced hypothermia", "setting": "[1]", "result": "antagonizes"},
      {"measurement": "neuronal uptake of morepinephrine", "setting": "[2]", "result": "prevents"},
      {"measurement": "antidepressant activity", "setting": "[3]", "result": "excellent"},
      {"measurement": "effect on histamine-induced corticotropin release", "setting": "[4]", "result": "reduces"},
      {"measurement": "cyclicadenosine monophosphate subsensitivity", "setting": "[5]", "result": "induces"},
      {"measurement": "inhibition of monoamine oxidase", "setting": "monoamine oxidase", "result": "does not inhibit"},
      {"measurement": "neuronal uptake of dopamine", "setting": "[6]", "result": "prevents"},
      {"measurement": "effect on the effects of levodopa", "setting": "effects of levodopa", "result": "potentiates"}
    ]}
  ]
}
